Several values for one entry are separate records, joined by “and”; a condition that tells them apart may be missing. Identical values can stand only once.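 Following 48 hours of exposure in 96-well plates, responses at five concentrations were used to interpolate endpoints linearly. GI50: concentration for 50% inhibition of growth. TGI marks complete inhibition of growth.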
How the values were obtained:
Assay in all cases: NCI anticancer screen, dose series, 48 h
[1] = tested on: A498 renal
[2] = tested on: CCRF-CEM leukemia
[3] = tested on: IGROV1 ovarian
[4] = tested on: NCI-H522 lung
[5] = tested on: RPMI-8226 leukemia
[6] = tested on: SF-268 CNS
[7] = tested on: SF-295 CNS
[8] = tested on: SNB-19 CNS
[9] = tested on: SR leukemia
[10] = tested on: UACC-62 melanoma

Compound	GI50 [1]	TGI [1]	GI50 [2]	TGI [2]	GI50 [3] [µM]	TGI [3]	GI50 [4] [µM]	TGI [4]	GI50 [5]	TGI [5]	GI50 [6]	TGI [6]	GI50 [7]	TGI [7]	GI50 [8]	TGI [8]	GI50 [9] [µM]	TGI [9] [µM]	GI50 [10]	TGI [10]
CN1CCN(Cc2ccc(-c3cc4ncnc(Nc5ccc(OCc6cccc(F)c6)c(Cl)c5)c4s3)o2)CC1	3.5 µM	7.57 µM	3.81 µM	9.18 µM	3.51	8.34 µM	4.75	9.46 µM	3.91 µM	9.52 µM	4.07 µM	8.7 µM	5.06 µM	10.4 µM	4.8 µM	9.86 µM	4.43	10	4.97 µM	9.58 µM
O=C(Nc1ccc(Cl)c(C(F)(F)F)c1)C(=O)C(C(=O)/C=C/c1ccccc1)C1OC(=O)c2ccccc21 (stereo not drawn)	–	> 100 µM	–	> 100 µM	–	> 100 µM	–	> 100 µM	–	> 100 µM	–	> 100 µM	–	> 100 µM	–	> 100 µM	–	> 100	–	> 100 µM
O=C(Nc1ccc(-c2nc3cc4ccccc4cc3[nH]2)cc1)c1cccc(Br)c1	47.1 µM	> 100 µM	9.55 µM	80.4 µM	15	42.2 µM	12.1	31.8 µM	10.6 µM	56.8 µM	9.22 µM	26.8 µM	20.7 µM	48.1 µM	39.2 µM	> 100 µM	2.34	8.66	15.8 µM	30.5 µM
COc1cc2oc(=O)cc(C)c2cc1[N+](=O)[O-]	–	> 84 µM	–	> 100 µM	–	> 84.8 µM	–	26.3 µM	–	> 75.3 µM	–	45 µM	–	> 100 µM	–	> 100 µM	–	> 100	–	34.6 µM
O=[N+]([O-])c1ccc(N2CCN(Cc3ccccc3)CC2)c2c1no[n+]2[O-]	1.52 µM	4.35 µM	0.155 µM	2.49 µM	0.951	2.66 µM	0.682	2.16 µM	1.76 µM	4.64 µM	1.42 µM	3.22 µM	1.38 µM	2.84 µM	2.23 µM	6.51 µM	0.0751	0.973	1.48 µM	3.4 µM
CCn1c(=O)c(-c2ccn[nH]2)cc2c(C)nc(N)nc21	0.209 µM	0.726 µM	1.68 µM	> 100 µM	0.32	2.17 µM	1.5	> 100 µM	0.821 µM	12.3 µM	1.53 µM	> 100 µM	0.559 µM	3.68 µM	4.57 µM	> 100 µM	1.64	> 100	0.687 µM	3.54 µM
CS(=O)(=O)c1ccc(Oc2cc(F)cc(C#N)c2)c2c1[C@H](O)[C@H](F)[C@@H]2F	4.86 µM	> 100 µM	> 100 µM	> 100 µM	> 100	> 100 µM	> 100	> 100 µM	> 100 µM	> 100 µM	> 100 µM	> 100 µM	> 100 µM	> 100 µM	> 100 µM	> 100 µM	> 100	> 100	> 100 µM	> 100 µM
O=C1C2C(C(=O)N1O)N(Cc1ccccc1)C(=O)N2Cc1ccccc1 (stereo not drawn)	–	> 100 µM	–	> 100 µM	–	> 100 µM	–	> 100 µM	–	> 100 µM	–	> 100 µM	–	> 100 µM	–	> 100 µM	–	> 100	–	> 100 µM
Cc1ccc(Nc2nc(NCCO)c3ccccc3n2)cc1C	0.0535 µM	2.06 µM	4.57 µM	18.6 µM	9.65	23.8 µM	4.68	18 µM	2.55 µM	9.46 µM	9.27 µM	22.2 µM	4.37 µM	17.5 µM	11.5 µM	24.8 µM	2.28	6.08	12.1 µM	25.3 µM
Cc1[nH]c(=O)[nH]c(=O)c1N(CCF)CCCl	247 µM and 311 µM	507 µM and 466 µM and 967 µM	96 µM and 48.4 µM	796 µM and 626 µM and 791 µM	284	793 µM and 1260 µM and 1270 µM	–	375 µM and 416 µM and 519 µM	161 µM and 190 µM and 122 µM	515 µM and 838 µM and 1270 µM	192 µM and 329 µM	651 µM and 1120 µM and 1100 µM	> 25 µM and 402 µM	600 µM and > 25 µM and 1140 µM	711 µM and 250 µM	1160 µM and 2500 µM and 1820 µM	–	1870	173 µM and 360 µM	419 µM and 1040 µM and 673 µM

Source: PubChem BioAssay (NCI)
